Measured values: publication PMC6606642, “Inhibition of Cathepsin S Reduces Lacrimal Gland Inflammation and Increases Tear Flow in a Mouse Model of Sjögren’s Syndrome” (Scientific Reports, 2019)

Target: Cathepsin S (human recombinant CTSS) (Homo sapiens, UniProt P25774)
Experiment: fluorescence CTSS activity assay kit with recombinant enzyme
Assay type: biochemical

Cathepsin S (human recombinant CTSS), sequence (P25774 115-331): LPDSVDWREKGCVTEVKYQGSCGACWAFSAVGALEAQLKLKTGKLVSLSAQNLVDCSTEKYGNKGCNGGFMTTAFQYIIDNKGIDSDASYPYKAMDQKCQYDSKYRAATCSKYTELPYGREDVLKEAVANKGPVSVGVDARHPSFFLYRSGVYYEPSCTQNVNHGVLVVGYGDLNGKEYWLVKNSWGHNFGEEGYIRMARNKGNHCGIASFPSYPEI

IC50 [nM] | SMILES
172 ± 32.7 | CC(C)C[C@H](NC(=O)[C@H](Cc1ccccc1)NC(=O)OCc1ccccc1)C(=O)C=O [Z-FL, Z-FL-COCHO]
262 ± 59.3 | CC(C)C[C@H](NC(=O)[C@H](Cc1ccccc1)NC(=O)OCc1ccccc1)C(=O)C=O [Z-FL-hydrate, Z-FL-COCHO-hydrate]
